Assay results: US9931309B2, “Curcumin-sophorolipid complex” (COUNCIL OF SCIENTIFIC & INDUSTRIAL RESEARCH, priority 2014, dated 2018)

Key:
Zeta potential = assay type: physicochemical; settings: dispersions without any dilution
Experimental: The surface charges of the SL(A), Cur and SL(A)+Cur were determined using a zeta potential analyzer (Brookhaven Instruments Corporation, NY). The average zeta potentials of the nano self-assembly dispersions were determined without any dilution.

[1] = Dynamic Light Scattering (DLS) measurements, particle size; assay type: physicochemical; settings: 10 mg dissolved in 10 ml H2O
Experimental: The Dynamic Light Scattering (DLS) measurements were carried using the out on Brookhaven Instrument model 90 Plus Particle Size Analyzer. The solutions, i.e. Cur, SL(A) and the present SL(A)+Curcumin nano-assembly were analyzed at a constant shutter opening diameter in the DLS apparatus. […] This was also confirmed with the results obtained by SEM and TEM analysis depicted in FIG. 4. Field emission scanning electron microscopy images acquired on FEI QUANTA 200 microscope, equipped with a tungsten filament gun, operating at WD 10.6 mm and 20 kV. A 10 μL aliquot of all three sample solution were placed on silicon wafer and fixed on copper stubs with help of carbon tape. The samples were dried at room temperature for overnight and images were recorded without gold coating.

MDA-MB-231 cells = assay: MTT cytotoxicity assay in MDA-MB-231 cells; assay type: cell-based
Experimental: (§1) All the experiments were performed in triplicates and repeated twice and the data has been presented as mean±SD. Statistical analysis was conducted with the Graph Pad 4 prism program using one-way ANOVA. The p values used for comparisons were <0.05. IC50 values were calculated using Kyplot software.
(§2) In order to determine whether acidic sophorolipid enhanced the bioavailability of Curcumin in cancerous cell lines, the cytotoxic potential of the aqueous SL(A)+Cur complex was tested in breast cancer lines MCF-7 and MDA-MB-231 and was compared with that of aqueous SL(A), Cur in water, and Cur dissolved in ethanol, the latter was used as a positive control.
(§3) Cyto-toxicity analysis of the present curcumin-SL(A) complex was performed using mammalian breast cancer cell lines by the MTT dye uptake assay. […] MTT solution (5 mg/ml) was added to each well and the cells were cultured for another 4 h at 37° C. in a 5% CO2 incubator. The formazan crystals formed were dissolved by addition of 90 μL of SDS-DMF (20% SDS in 50% DMF). After 15 min, the concentration of colored formazan derivative was determined by measuring optical density (OD) using the ELISA microplate reader (Biorad, Hercules, Calif.) at 570 nm (OD: 570-630 nm). The percentage viability was calculated as: % Viability=[OD of treated cells/OD of control cells]×100 Percentage Viability Observed Post Treatment

[2] = Appearance / solubilization of aqueous test solutions; assay type: physicochemical; settings: 100 μg/ml
Experimental: Optical properties of the present complex SL(A)+ curcumin complex were determined by UV-Vis and Photoluminescence studies analysis. Accordingly, the optical properties of SL(A), curcumin and the present sophorolipid-curcumin (SL(A)+Cur) self-assembly were compared. UV-Vis absorption spectra were recorded on Varian CARY 100 Bio UV-Vis spectrophotometer respectively, with 10 mm quartz cell at 25±0.1° C. For recording the spectra, 3 ml solutions of SL(A), Cur and SL(A)+Cur solution were prepared with having a concentration of 100 μg/ml. The solutions of this were mixed gently and subsequently the spectra were recorded.
Visible differences in the appearance of each of the test solutions were observed.

MCF-7 cells = assay: cells; assay type: cell-based
Experimental: as §1, §2, §3

- zeta potential (Zeta potential): −15.14 mV
- hydrodynamic radius [1]: about 818 nm
- hydrodynamic radius ([1]; listed as Curcumin): 818.6 nm
- appearance of the solution [2]: turbid
Structure (SMILES): COc1cc(/C=C/C(=O)CC(=O)/C=C/c2ccc(O)c(OC)c2)ccc1O [Cur, diferuloylmethane]
- concentration at which cytotoxicity is exhibited (MDA-MB-231 cells): 20000 ng/mL
- activity against the cancerous cell lines (MDA-MB-231 cells; MDA-MB-231): no activity
- % viability (MDA-MB-231 cells; MDAMB 231, 5 μg/ml): 100%
- % viability (MDA-MB-231 cells; MDAMB 231, 10 μg/ml): 100%
- % viability (MDA-MB-231 cells; MDAMB 231, 20 μg/ml): 100%
- % viability (MDA-MB-231 cells; MDAMB 231, 40 μg/ml): 95%
- % viability (MDA-MB-231 cells; MDAMB 231, 80 μg/ml): 93%
- % viability (MDA-MB-231 cells; MDAMB 231, 120 μg/ml): 91%
- viability at 5 µg/mL (MCF-7 cells; Homo sapiens, MCF7): 100%
- viability at 10 µg/mL (MCF-7 cells; Homo sapiens, MCF7): 100%
- viability at 20 µg/mL (MCF-7 cells; Homo sapiens, MCF7): 100%
- viability at 40 µg/mL (MCF-7 cells; Homo sapiens, MCF7): 95%
- viability at 80 µg/mL (MCF-7 cells; Homo sapiens, MCF7): 93%
- viability at 120 µg/mL (MCF-7 cells; Homo sapiens, MCF7): 91%
- activity against the cancerous cell lines (MCF-7 cells; MCF-7): no activity
- concentration from which anticancer activity (growth inhibition) commences (MCF-7 cells; MCF-7, FIG. 7(a), for the complex as concentration of Cur): 40 µg/mL
- relative toxicity at low to moderate dose (MCF-7 cells; MCF-7, low to moderate dose range (5-20 μg/ml)): more toxic
